Laboratory results as given in PubChem BioAssay (NCI).
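Exposure lasted 48 hours, with cells grown in 96-well plates and compounds tested at five concentrations. Abbreviation: GI50, concentration required for 50% inhibition of growth. Definition used: TGI = concentration required for complete inhibition of growth.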

What was measured:
Assay in all cases: DTP human tumour cell line panel, 48 h
OVCAR-8 ovarian = system: OVCAR-8 ovarian
DU-145 prostate = system: DU-145 prostate
KM12 colon = system: KM12 colon
U251 CNS = system: U251 CNS
NCI-H460 lung = system: NCI-H460 lung
HOP-92 NSCLC = system: HOP-92 NSCLC
LOX IMVI melanoma = system: LOX IMVI melanoma
OVCAR-3 ovarian = system: OVCAR-3 ovarian
SNB-19 CNS = system: SNB-19 CNS
TK-10 renal = system: TK-10 renal
CAKI-1 renal = system: CAKI-1 renal
SF-268 CNS = system: SF-268 CNS
HL-60(TB) leukemia = system: HL-60(TB) leukemia
BT-549 breast = system: BT-549 breast
CCRF-CEM leukemia = system: CCRF-CEM leukemia
MOLT-4 leukemia = system: MOLT-4 leukemia
SK-OV-3 ovarian = system: SK-OV-3 ovarian
SNB-75 CNS = system: SNB-75 CNS
SK-MEL-28 melanoma = system: SK-MEL-28 melanoma
SR leukemia = system: SR leukemia
NCI/ADR-RES ovarian = system: NCI/ADR-RES ovarian
M14 melanoma = system: M14 melanoma
COLO 205 colon = system: COLO 205 colon
MCF7 breast = system: MCF7 breast
HCC-2998 colon = system: HCC-2998 colon
HS 578T breast = system: HS 578T breast
OVCAR-5 ovarian = system: OVCAR-5 ovarian
T-47D breast = system: T-47D breast
OVCAR-4 ovarian = system: OVCAR-4 ovarian

Cn1c(=O)n(CCCO)c(=O)c2c1nc(Oc1cccc(OC(F)(F)F)c1)n2Cc1ccc(Cl)cc1
GI50 (OVCAR-8 ovarian): 14.4 µM | TGI (OVCAR-8 ovarian): 37.6 µM | GI50 (DU-145 prostate): 13.2 µM | TGI (DU-145 prostate): 27.5 µM | GI50 (KM12 colon): 13.5 µM | TGI (KM12 colon): 32.4 µM | GI50 (U251 CNS): 12.5 µM | TGI (U251 CNS): 29.8 µM | GI50 (NCI-H460 lung): 8.5 µM | TGI (NCI-H460 lung): 23.9 µM | GI50 (HOP-92 NSCLC): 11 µM | TGI (HOP-92 NSCLC): 24.5 µM | GI50 (LOX IMVI melanoma): 12 µM | TGI (LOX IMVI melanoma): 28.8 µM | GI50 (OVCAR-3 ovarian): 11.4 µM | TGI (OVCAR-3 ovarian): 25.2 µM | GI50 (SNB-19 CNS): 18.4 µM | TGI (SNB-19 CNS): 40.1 µM | GI50 (TK-10 renal): 14.7 µM | TGI (TK-10 renal): 30.1 µM | GI50 (CAKI-1 renal): 9.05 µM | TGI (CAKI-1 renal): 22.6 µM | GI50 (SF-268 CNS): 8.54 µM | TGI (SF-268 CNS): 24.5 µM | GI50 (HL-60(TB) leukemia): 5.78 µM | TGI (HL-60(TB) leukemia): 22.9 µM | GI50 (BT-549 breast): 12.9 µM | TGI (BT-549 breast): 26.4 µM | GI50 (CCRF-CEM leukemia): 14.6 µM | TGI (CCRF-CEM leukemia): 39.8 µM | GI50 (MOLT-4 leukemia): 5.21 µM | TGI (MOLT-4 leukemia): 21.7 µM | GI50 (SK-OV-3 ovarian): 18.1 µM | TGI (SK-OV-3 ovarian): 34 µM | GI50 (SNB-75 CNS): 11.8 µM | TGI (SNB-75 CNS): 26.7 µM | GI50 (SK-MEL-28 melanoma): 14.1 µM | TGI (SK-MEL-28 melanoma): 29.5 µM | GI50 (SR leukemia): 3.79 µM | TGI (SR leukemia): 18.2 µM | GI50 (NCI/ADR-RES ovarian): 11.4 µM | TGI (NCI/ADR-RES ovarian): 33.4 µM | GI50 (M14 melanoma): 11.8 µM | TGI (M14 melanoma): 27.4 µM | GI50 (COLO 205 colon): 12.6 µM | TGI (COLO 205 colon): 30.3 µM | GI50 (MCF7 breast): 4.77 µM | TGI (MCF7 breast): 22.2 µM | GI50 (HCC-2998 colon): 15 µM | TGI (HCC-2998 colon): 33.9 µM | GI50 (HS 578T breast): 16.3 µM | TGI (HS 578T breast): 43.4 µM | GI50 (OVCAR-5 ovarian): 13.1 µM | TGI (OVCAR-5 ovarian): 26.3 µM | GI50 (T-47D breast): 3.78 µM | TGI (T-47D breast): 21 µM | GI50 (OVCAR-4 ovarian): 13.2 µM | TGI (OVCAR-4 ovarian): 30.4 µM
